Target: Cyclin-dependent kinase 7/ cyclin H (Homo sapiens, UniProt P50613)
Assay: In Vitro Kinase Assay: In vitro kinase assays with immunoprecipitated proteins (or recombinant CAK complexes) were performed as follows. Kinase reactions were performed in 25 μL of final volume of reaction buffer (50 mM Hepes, pH 7.5, 150 mM NaCl, 10 mM MgCl2, 5% glycerol, 25 μM ATP, and 10 μCi of [γ-32P]ATP). Each reaction contained 1 μg of RNAP II. Incubation was at 30° C. for 30-45 min. Reactions were terminated by addition of 5 μL of 5×SDS-PAGE sample buffer and incubated at 95° C. for 5 min. Reactions were analyzed by SDS-PAGE, and the dried gel was exposed to film or PhosphorImager plate.
Type: protein-complex assay

Chain of Cyclin-dependent kinase 7/ cyclin H (P51946 whole entry): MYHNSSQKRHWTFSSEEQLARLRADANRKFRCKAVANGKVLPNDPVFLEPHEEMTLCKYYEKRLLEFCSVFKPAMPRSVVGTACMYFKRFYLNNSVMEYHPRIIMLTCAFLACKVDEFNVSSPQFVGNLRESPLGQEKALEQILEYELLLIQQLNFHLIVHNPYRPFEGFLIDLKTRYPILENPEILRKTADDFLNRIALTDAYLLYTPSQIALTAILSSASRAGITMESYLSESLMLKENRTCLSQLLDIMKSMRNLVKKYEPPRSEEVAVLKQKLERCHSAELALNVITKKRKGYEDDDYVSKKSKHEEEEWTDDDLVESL
Chain of Cyclin-dependent kinase 7/ cyclin H (P50613 whole entry): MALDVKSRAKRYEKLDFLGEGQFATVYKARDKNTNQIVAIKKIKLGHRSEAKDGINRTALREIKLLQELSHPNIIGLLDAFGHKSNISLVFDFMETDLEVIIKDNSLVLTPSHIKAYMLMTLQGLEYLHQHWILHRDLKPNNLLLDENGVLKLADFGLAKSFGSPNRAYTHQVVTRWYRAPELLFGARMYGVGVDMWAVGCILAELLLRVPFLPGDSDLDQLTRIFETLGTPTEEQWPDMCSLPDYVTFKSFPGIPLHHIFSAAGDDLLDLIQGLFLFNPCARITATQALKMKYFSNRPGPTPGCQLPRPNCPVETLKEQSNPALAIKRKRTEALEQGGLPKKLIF

IC50: < 100 nM
Compound: CN(C)C/C=C/C(=O)Nc1ccc(S(=O)(=O)Nc2cccc(Nc3ncc(Cl)c(-c4c[nH]c5ccccc45)n3)c2)cc1

From ChEMBL document CHEMBL5727982, “Inhibitors of cyclin-dependent kinase 7 (CDK7)” (2020)
